# Source: patent publication US20220412989A1, “COMPOSITIONS AND METHODS FOR DETECTING CELLS UNDERGOING FERROPTOSIS USING AN ANTIBODY” (THE TRUSTEES OF COLUMBIA UNIVERSITY IN THE CITY OF NEW YORK, priority 2020, published 2022)
# How the values were obtained:
# Format in all cases: cell-based, human
# HT-1080 cells [1] = test: Nucleus area by immunofluorescence (DAPI, CellProfiler)
# Method: HT-1080 (ATCC Cat #CRL-7951, RRID:CVCL_0317), A-673, SK-BR-3, SK-LMS-1 and Huh-7 cells were treated with 1 μM RSL3 for 4 h, 15 μM erastin for 8 h, 10 μM IKE for 8 h, 15 μM FINO2 for 8 h, 10 μM FIN56 for 8 h, 100 μM tBuOOH for 8 h, 1 μM staurosporine (STS) for 6 h, 2 μM camptothecin (CPT) for 24 h, 1 μM RSL3+5 μM Fer-1 for 4 h and 10 μM IKE+5 μM Fer-1 for 8 h on poly-lysine-coated cover slips (Sigma Aldrich P4832) in 24-well plate. Media were taken out and the cells were gently washed with PBS^++ (PBS with 1 mM CaCl2) and 0.5 mM MgCl2) twice. The cells were fixed and permeabilized by adding 200 μL/well of 4% paraformaldehyde (PFA) in PBS with 0.1% Triton X-100 (PBT), and incubated at room temperature for 18 min. The cells were then washed with PBT three times. Then the cells were blocked with 5% goat serum (ThermoFisher 50197Z) in PBT for 1 h at room temperature. The cells were incubated with purified mouse monoclonal antibodies (1:5 dilution), mouse mAb 3F3 FMA (1:500 dilution), Transferrin Receptor/CD71 Monoclonal Antibody, Clone: H68.4, Invitrogen (Thermo Fisher Scientific Cat #13-6800, RRID:AB_2533029, 1:250 dilution), Cd71 (D7G9X) XP® Rabbit mAb (Cell Signaling Technology Cat #13113, RRID:AB_2715594, 1:100 dilution), CD71 (3B8 2A1) (Santa Cruz Biotechnology Cat #sc-32272, RRID:AB_627167, 1:50 dilution), Tom20 (FL-145) (Santa Cruz Biotechnology Cat #sc-11415, RRID:AB_2207533, 1:250 dilution), PDI antibody [RL90]—ER Marker (Abcam Cat #ab2792, RRID:AB_303304, 1:100 dilution), Gm130 (D6B1) XP® Rabbit mAb (Cell Signaling Technology Cat #12480, RRID:AB_2797933, 1:3200 dilution), Anti-Malondialdehyde antibody (Abcam Cat #ab6463, RRID:AB_305484, 1:400 dilution), Anti-4 Hydroxynonenal antibody (Abcam Cat #ab46544, RRID:AB_722493, 1:50 dilution), ACSL4 Antibody (F-4) (Santa Cruz Biotechnology Cat #sc-365230, RRID:AB_10843105, 1:50 dilution), mouse mAb 1F83 (1:100 dilution), which specifically recognizes the malondialdehyde (MDA)-lysine adduct 4-methyl-1,4-dihydropyridine-3,5-dicarbaldehyde (MDHDC) (Yamada et al., 2001), in PBT with 1% BSA and 5% goat serum overnight at 4° C. The cells were washed with PBT for 5 min three times. The cells were incubated with Goat anti-Mouse IgG (H+L) Highly Cross-Adsorbed Secondary Antibody, Alexa Fluor 594 (Thermo Fisher Scientific Cat #A-11032, RRID:AB_2534091, 1:200 dilution) or Goat anti-Rabbit IgG (H+L) Highly Cross-Adsorbed Secondary Antibody, Alexa Fluor 488 (Thermo Fisher Scientific Cat #A-11034, RRID:AB_2576217, 1:200 dilution) at room temperature for 1 h. The cells were washed with PBT for 5 min three times. ProLong Diamond antifade mountant with DAPI (ThermoFisher P36962) was added to stain the nucleus. All images were captured on a Zeiss LSM 800 confocal microscope at Plan-Apochromat 63x/1.40 Oil DIC objective with constant laser intensity for all samples. When applicable, line-scan analysis was performed on representative confocal microscopy images using Zeiss LSM software to qualitatively visualize fluorescence overlap.
# The quantification of the intensity of antibodies was analyzed using CellProfiler 3.1.8 (Carpenter et al., 2006) (CellProfiler Image Analysis Software, RRID:SCR_007358). Nuclei were firstly identified as primary objects using global minimum cross entropy strategy. […] Then mean intensities and size areas of nuclei, cytoplasm and plasma membranes were then measured and reported. […]
# HT-1080 cells [2] = test: Nucleus area by high-content analysis
# Method: For the screening with five technical replicates, HT-1080 cells were washed with PBS, trypsinized and resuspended in cell culture medium. The cell suspension (2,000 cells in 50 μl per well) was dispensed into collagen (Sigma-Aldrich, St. Louis, Mass., USA) pre-coated 384-well plates (PerkinElmer 384-well CellCarrierUltra™). 24 h after seeding, medium was exchanged to medium containing 0.3 μM RSL3 (1 mM stock solution) dissolved in 100% dimethyl sulfoxide (DMSO) or DMSO alone. 50 μl medium with 0.3 μM RSL3/DMSO was added per well. The cells were then incubated (37° C.; 5% CO2) for 2.5 h prior to fixation and antibody staining. […] Finally, plates were recorded using the automated Operetta® microscope with the 20× high NA objective for high-resolution images (PerkinElmer, USA). For quantification, three images of each condition were recorded using three channels (Hoechst, Alexa488, TRITC). […] Quantification on cell number, cytoplasmic intensity, nucleus intensity and spot number per cell was performed using the Columbus Software (PerkinElmer, USA).
# Multiparametric image analysis was performed using Columbus Software 2.8.0 (PerkinElmer). […] In a next step we have calculated the morphology and Alexa488 fluorescence intensity in each cell region (nucleus and cytoplasm). […] Each spot was detected as a small region within the corresponding image by having a higher intensity than its surrounding area. […]
# HT-1080 cells [3] = test: Cell death after RSL3 incubation; conditions: 1 μM RSL3, 4 h incubation
smiles,measurement,setting,value
CCOc1ccccc1-n1c(C(C)N2CCN(C(=O)COc3ccc(Cl)cc3)CC2)nc2ccccc2c1=O (centres unmarked) [erastin],nuclei shrank by (mean nucleus area),"HT-1080 cells [1]; 15 μM erastin, 8 h incubation",21%
"CC(C)Oc1ccc(C(=O)Cn2ccnc2)cc1-n1c(CN2CCN(C(=O)COc3ccc(Cl)cc3)CC2)nc2ccccc2c1=O [IKE, imidazole ketone erastin]",nuclei shrank by (mean nucleus area),"HT-1080 cells [1]; 10 μM IKE, 8 h incubation",12%
"O=S(=O)(NC1CCCCC1)c1ccc2c(c1)C(=NO)c1cc(S(=O)(=O)NC3CCCCC3)ccc1-2 [FIN56, ferroptosis inducer 56]",nuclei shrank by (mean nucleus area),"HT-1080 cells [1]; 10 μM FIN56, 8 h incubation",17%
"CC1(CCO)CC2(CCC(C(C)(C)C)CC2)OO1 (centres unmarked) [FINO2, ferroptosis inducer endoperoxide]",nuclei shrank by (mean nucleus area),"HT-1080 cells [1]; 15 μM FINO2, 8 h incubation",49%
"COC(=O)c1ccc([C@@H]2c3[nH]c4ccccc4c3C[C@@H](C(=O)OC)N2C(=O)CCl)cc1 [RSL3, (1S, 3R)-RSL3]",nuclei shrank by (mean nucleus area),"HT-1080 cells [1]; 1 μM RSL3, 4 h incubation",27%
same,decrease of average nucleus area vs DMSO group,HT-1080 cells [2]; RSL3-treated plates 4-6,17%
same,average nucleus area,HT-1080 cells [2]; RSL3-treated plates 4-6 (DMSO group 240 μm^2),200 μm^2
same,HT-1080 cells died,HT-1080 cells [3],30%
